Where two headings read alike, the source gives them in different places.
Key:
[1] = biological target: KAT-5 (Homo sapiens (Human), UniProt Q92993); assay: KAT-5 biochemical inhibition assay (SAMDI mass spectrometry)
How it was run: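 KAT-5 at 9 nM final was preincubated with serially diluted compound (2% DMSO) in 50 mM Tris pH 8.0 with 1 mM DTT. Reaction ran with 1 μM peptide substrate and 0.5 μM acetyl-CoA for 90 min at 25° C, was quenched with 0.5% formic acid, and was read by SAMDI-TOF mass spectrometry.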

[2] = biological target: KAT-6A (Homo sapiens (Human), UniProt Q92794); assay: KAT-6A biochemical inhibition assay (SAMDI mass spectrometry)
Sequence of KAT-6A (Q92794 other isoform, or with tags, fused parts or gaps): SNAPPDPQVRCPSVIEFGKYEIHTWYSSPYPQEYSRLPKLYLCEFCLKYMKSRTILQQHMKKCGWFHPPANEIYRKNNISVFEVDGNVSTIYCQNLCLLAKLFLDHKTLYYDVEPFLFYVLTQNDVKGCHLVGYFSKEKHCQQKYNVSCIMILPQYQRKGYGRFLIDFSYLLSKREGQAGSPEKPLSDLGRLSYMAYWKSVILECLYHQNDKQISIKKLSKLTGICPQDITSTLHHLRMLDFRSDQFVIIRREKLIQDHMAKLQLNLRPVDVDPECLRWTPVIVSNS
How it was run: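 Enzyme (12.5 nM final) pre-incubated with serially diluted compounds (2% DMSO final) in 50 mM Tris pH 8.0 with Tween20, gelatin and 1 mM DTT. Reaction started with 1 μM peptide substrate and 1 μM acetyl-CoA, run 90 min at 25 °C, quenched with 0.5% formic acid, read by SAMDI-TOF mass spectrometry; IC50 derived.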

[3] = biological target: KAT-7 (Homo sapiens (Human), UniProt O95251); assay: KAT-7 biochemical inhibition assay (SAMDI mass spectrometry)
Sequence of KAT-7 (O95251 other isoform, or with tags, fused parts or gaps): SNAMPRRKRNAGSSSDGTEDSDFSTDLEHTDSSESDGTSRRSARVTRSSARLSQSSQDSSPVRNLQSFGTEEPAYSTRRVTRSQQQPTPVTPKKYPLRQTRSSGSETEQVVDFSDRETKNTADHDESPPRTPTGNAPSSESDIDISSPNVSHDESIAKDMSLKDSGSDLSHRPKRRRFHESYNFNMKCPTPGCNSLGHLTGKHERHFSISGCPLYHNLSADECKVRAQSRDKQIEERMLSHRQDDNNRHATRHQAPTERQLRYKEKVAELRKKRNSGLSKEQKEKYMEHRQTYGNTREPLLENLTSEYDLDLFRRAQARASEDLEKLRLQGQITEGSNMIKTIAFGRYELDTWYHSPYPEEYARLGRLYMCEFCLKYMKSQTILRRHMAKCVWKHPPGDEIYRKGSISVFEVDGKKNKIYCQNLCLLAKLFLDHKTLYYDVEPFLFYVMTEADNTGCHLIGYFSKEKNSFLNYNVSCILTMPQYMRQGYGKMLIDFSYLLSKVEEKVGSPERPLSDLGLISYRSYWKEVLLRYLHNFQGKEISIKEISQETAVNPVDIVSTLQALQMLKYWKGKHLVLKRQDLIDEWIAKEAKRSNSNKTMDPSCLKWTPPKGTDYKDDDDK
How it was run: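 KAT-7 (6 nM) was pre-incubated with serially diluted compound (2% DMSO) in Tris pH 8.0 with DTT. Reaction with 1 μM peptide and 2 μM acetyl-CoA ran 120 min at 25 °C and was stopped with 0.5% formic acid. Acetylation was read by SAMDI-TOF mass spectrometry to give IC50.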

[4] = tested on: H3K23 acetylation in CAL-120 cells; assay: Inhibition of acetylation of H3K23 in Human cell line CAL-120; assay type: cell-based; details: CAL-120 cell line, 3 hours, serial dilutions starting at 10 μM; FIG. 1
Method: Inhibition of acetylation of H3K23 in Human cell line CAL-120. Cell line CAL-120 was plated in eleven 10 cm tissue culture dishes at a cell density of 4×10^5 cells/cm^2 and treated with ten 2-fold serial dilutions of compound A-30 starting at 10 μM and one dish with DMSO (vehicle control) for 3 hours. Cells were tripsinized, washed twice with ice cold PBS and snap-frozen. Histones were extracted from cell pellets. Protein concentration was assessed and 60 ng of protein sample from histone extraction was prepared in triplicate in 100 μl coating buffer (0.05% w/v BSA in PBS) and added directly to high binding 96 well plates. Plates were left at 4° C. overnight to allow protein to adhere. Coating buffer with histones was discarded and plates blotted, and 100 μL per well of primary antibody solution of rabbit anti-H3K23ac antibody (Millipore 07-355) (1:600) and mouse anti-total H3 antibody (CST-14269) (1:500) in Odyssey buffer with 0.1% Tween 20 (v/v) was added to the wells of the plate and incubated for 1 hour. […]
Calculations were performed as follows: First, the ratio for each well was determined by:
[formula] Then, the average of the ratio values for each test well was calculated and used to determine the percent of H3K23Ac from vehicle for each test well in the plate: […]

[5] = tested on: KMS34 cells; assay: Long term proliferation assay (14-day), KMS34; assay type: cell-based; details: KMS-34, 336 h; KMS34, MM; 14-day timepoint; absolute IC50
Method: (§1) Long term proliferation assay. A panel of multiple myeloma (MM) and acute myeloid leukemia (AML) cell lines were tested in 14-day proliferation assays. Exponentially growing cells were plated, in triplicate, in 96-well plates at the appropriate cell density in a final volume of 150 μL. Cells were incubated in the presence of increasing concentrations of compound A-30. Viable cell number was determined at 0, 4, 7, 11, and 14 days using Calcein staining and using an Accumen instrument to enumerate the number of cells. On days of cell counts, growth media and compound A-30 were replaced, and cells split back to initial density. Total cell number is expressed as split-adjusted viable cells per well.
(§2) Calculations were performed as follows:
(§3) First, the inhibition of proliferation was calculated for each well at each treatment concentration at each timepoint with the following formula:
(§4) [formula] Then, for each cell line, concentration response curves were plotted as average and standard deviation from triplicate determinations as percent inhibition vs log of concentration of compound A-30. Absolute IC50 values (concentration of compound at which 50% inhibition occurs) were determined from the curve at each timepoint using Graphpad Prism software. An IC50 value of ≤10 μM is designated as “A”; an IC50 value of >10 μM is designated as “B”.

[6] = tested on: RPMI8226 cells; assay: Long term proliferation assay (14-day), RPMI8226; assay type: cell-based; details: Homo sapiens, RPMI-8226, 336 h; RPMI8226, MM; 14-day timepoint; absolute IC50
Method: as §1, §2, §3, §4

[7] = tested on: NOMO1 cells; assay: Long term proliferation assay (14-day), NOMO1; assay type: cell-based; details: Homo sapiens, NOMO-1, 336 h; NOMO1, AML; 14-day timepoint; absolute IC50
Method: as §1, §2, §3, §4

[8] = tested on: OCIAML3 cells; assay: Long term proliferation assay (14-day), OCIAML3; assay type: cell-based; details: Homo sapiens, OCI-AML-3, 336 h, 14-day timepoint, absolute IC50
Method: as §1, §2, §3, §4

[9] = tested on: KMS11 cells; assay: Long term proliferation assay (14-day), KMS11; assay type: cell-based; details: Homo sapiens, KMS-11, 336 h; KMS11, MM; 14-day timepoint; absolute IC50
Method: as §1, §2, §3, §4

[10] = tested on: LP1 cells; assay: Long term proliferation assay (14-day), LP1; assay type: cell-based; details: Homo sapiens, LP-1, 336 h; LP1, MM; 14-day timepoint; absolute IC50
Method: as §1, §2, §3, §4

[11] = tested on: OCIAML2 cells; assay: Long term proliferation assay (14-day), OCIAML2; assay type: cell-based; details: Homo sapiens, OCI-AML2, 336 h; OCIAML2, AML; 14-day timepoint; absolute IC50
Method: as §1, §2, §3, §4

[12] = tested on: MOLM13 cells; assay: Long term proliferation assay (14-day), MOLM13; assay type: cell-based; details: Homo sapiens, MOLM-13, 336 h; MOLM13, AML; 14-day timepoint; absolute IC50
Method: as §1, §2, §3, §4

[13] = tested on: SEM cells; assay: Long term proliferation assay (14-day), SEM; assay type: cell-based; details: 336 h, B-ALL, 14-day timepoint, absolute IC50
Method: as §1, §2, §3, §4

[14] = tested on: THP1 cells; assay: Long term proliferation assay (14-day), THP1; assay type: cell-based; details: Homo sapiens, THP-1, 336 h; THP1, AML; 14-day timepoint; absolute IC50
Method: as §1, §2, §3, §4

[15] = biological target: KAT-8 (Homo sapiens (Human), UniProt Q9H7Z6); assay: KAT-8 biochemical inhibition assay (SAMDI mass spectrometry)
Sequence of KAT-8 (Q9H7Z6 other isoform, or with tags, fused parts or gaps): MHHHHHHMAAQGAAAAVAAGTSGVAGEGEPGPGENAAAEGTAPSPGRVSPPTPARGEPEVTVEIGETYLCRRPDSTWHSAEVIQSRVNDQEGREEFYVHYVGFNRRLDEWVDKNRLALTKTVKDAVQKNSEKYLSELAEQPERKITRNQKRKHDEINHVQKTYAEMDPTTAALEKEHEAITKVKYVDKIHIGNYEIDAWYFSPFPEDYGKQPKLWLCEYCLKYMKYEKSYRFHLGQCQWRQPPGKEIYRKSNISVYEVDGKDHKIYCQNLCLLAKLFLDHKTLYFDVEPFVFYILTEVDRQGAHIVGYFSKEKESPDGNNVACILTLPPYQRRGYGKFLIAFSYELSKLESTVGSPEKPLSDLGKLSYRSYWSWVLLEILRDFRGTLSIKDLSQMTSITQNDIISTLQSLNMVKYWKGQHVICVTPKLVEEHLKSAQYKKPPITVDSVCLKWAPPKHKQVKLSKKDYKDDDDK
How it was run: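 Compounds in 2% DMSO pre-incubated with 12.5 nM enzyme in 50 mM Tris pH 8.0 with Tween20, gelatin and 1 mM DTT. Then 1 μM peptide and 5 μM acetyl-CoA were added, 90 min at 25 °C; formic acid stop and SAMDI-TOF mass spectrometry for IC50.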

Sequence of KAT-5 (Q92993 other isoform, or with tags, fused parts or gaps): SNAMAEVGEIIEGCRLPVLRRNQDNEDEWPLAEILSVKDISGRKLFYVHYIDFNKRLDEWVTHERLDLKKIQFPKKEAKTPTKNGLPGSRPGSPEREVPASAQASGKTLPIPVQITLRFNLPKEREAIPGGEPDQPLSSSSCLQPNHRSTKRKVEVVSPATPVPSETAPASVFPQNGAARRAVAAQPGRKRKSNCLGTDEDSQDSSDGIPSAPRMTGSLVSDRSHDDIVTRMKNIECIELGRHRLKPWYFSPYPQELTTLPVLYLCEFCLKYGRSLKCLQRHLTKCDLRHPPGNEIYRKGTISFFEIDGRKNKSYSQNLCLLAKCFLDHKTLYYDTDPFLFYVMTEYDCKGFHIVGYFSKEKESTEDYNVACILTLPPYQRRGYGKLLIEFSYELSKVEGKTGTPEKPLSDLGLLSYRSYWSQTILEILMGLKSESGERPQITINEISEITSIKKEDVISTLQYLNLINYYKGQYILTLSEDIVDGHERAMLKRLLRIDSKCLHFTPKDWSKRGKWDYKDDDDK

Row | Compound | IC50 [1] [µM] | IC50 [2] [µM] | IC50 [3] [µM] | IC50 [15] [µM] | also measured
1 | COCc1cc(Cl)c(F)c(C(=O)NNS(=O)(=O)c2cccc(O)c2)c1 [Compound A-30] |  |  |  |  | IC50 ([1]; Table 5): ≤ 10 µM; IC50 ([2]; Table 5): ≤ 1 µM; IC50 ([3]; Table 5): ≤ 10 µM; inhibition of acetylation of H3K23 [4]: inhibition of acetylation of H3 K23; IC50 [5]: ≤ 10 µM; IC50 [6]: ≤ 10 µM; IC50 [7]: ≤ 10 µM; IC50 [8]: ≤ 10 µM; IC50 [9]: ≤ 10 µM; IC50 [10]: ≤ 10 µM; IC50 [11]: > 10 µM; IC50 [12]: > 10 µM; IC50 [13]: > 10 µM; IC50 [14]: > 10 µM
2 | CN(C(=O)C1CCC1)C1CCCC(CS(=O)(=O)NNC(=O)c2cc(-c3cn(C)cn3)cc(Cl)c2F)C1 (stereo not shown) [Compound I-295] | < 10 | < 10 | < 10 | 10 to 50 | 
3 | CNC1CCCC(CS(=O)(=O)NNC(=O)c2cc(-c3cn(C)cn3)cc(Cl)c2F)C1 (stereo not shown) [Compound I-280] | 10 to 50 | 10 to 50 | < 10 | 10 to 50 | 
4 | Cn1cnc(-c2cc(Cl)c(F)c(C(=O)NNS(=O)(=O)CC3CCCC(NC(=O)C4CCC4)C3)c2)c1 (stereo not shown) [Compound I-218] | < 10 | < 10 | < 10 | 10 to 50 | 
5 | O=C(NNS(=O)(=O)CC1CCOCC1)c1cc(-n2cccn2)cc(Cl)c1F [Compound I-41] | 10 to 50 | < 10 | 50 to 100 | > 100 | 
6 | Cn1cnc(-c2cc(Cl)c(F)c(C(=O)NNS(C)(=O)=O)c2)c1 [Compound I-22] | > 100 | 10 to 50 | < 10 | > 100 | 

— US11685732B2, “MYST family histone acetyltransferase inhibitors” (Epizyme, Inc., priority 2017, dated 2023)
